pIC50: −log10 of the molar value. Activity calls are given as the source filed them. The calls are words filed in the database; no cut-off is given here.
How the values were obtained:
[1] = organism: Mus musculus; test: Anti-arthritis activity against MSU-induced acute gout arthritis ICR mouse model assessed as reversal of GSDMD-NT upregulation in foot tissue at 10 uM by western blot analysis; assay type: functional, organism-based
[2] = test system: BMDM; test: Antiinflammatory activity against MSU-induced C57BL/6 mouse BMDM cells assessed as inhibition of MSU-induced caspase-1 upregulation at 10 uM measured after 7 days by western blot analysis; assay type: functional, cell-based
[3] = test system: BMDM; test: Antiinflammatory activity against MSU-induced C57BL/6 mouse BMDM cells assessed as inhibition of MSU-induced NLRP3 upregulation at 10 uM measured after 7 days by western blot analysis; assay type: functional, cell-based
[4] = test system: Mus musculus; test: Anti-inflammatory activity against air pouch inflammation ICR mouse model assessed as decrease in MSU-induced pyroptosis of air pouch macrophages by measuring early cells at 10 uM injected subcutaneously after 24 hrs of MSU stimulation and measured after 24 hrs by caspase-1/PI staining based flow cytometry (reference value: 13.6 %); assay type: functional; design: scale not given: the % may be the effect or the level left; details: route sc
[5] = test system: Mus musculus; test: Anti-inflammatory activity against air pouch inflammation ICR mouse model assessed as decrease in MSU-induced pyroptosis of air pouch macrophages by measuring necrotic cells at 10 uM injected subcutaneously after 24 hrs of MSU stimulation and measured after 24 hrs by caspase-1/PI staining based flow cytometry (Rvb =26.2 %); assay type: functional; design: scale not given: the % may be the effect or the level left; details: route sc
[6] = test system: BMDM; test: Antiinflammatory activity against MSU-induced C57BL/6 mouse BMDM cells assessed as inhibition of MSU-induced GSDMD-NT upregulation at 10 uM measured after 7 days by western blot analysis; assay type: functional, cell-based
[7] = test system: BMDM; test: Antiinflammatory activity against MSU-induced C57BL/6 mouse BMDM cells assessed as inhibition of MSU-induced NLRP3 upregulation at 10 uM by measuring fluorescence intensity by immunofluorescence assay; assay type: functional, cell-based
[8] = organism: Mus musculus; test: Anti-arthritis activity against MSU-induced acute gout arthritis ICR mouse model assessed as reduction in paw swelling at 10 uM measured at 6 to 24 hrs; assay type: functional, organism-based
[9] = organism: Mus musculus; test: Anti-arthritis activity against MSU-induced acute gout arthritis ICR mouse model assessed as inhibition of NLRP3 inflammasome activation in foot tissue at 10 uM by microscopic analysis; assay type: functional, organism-based
[10] = test system: Mus musculus; test: Anti-inflammatory activity against air pouch inflammation ICR mouse model assessed as decrease in MSU-induced pyroptosis of air pouch macrophages by measuring viable cells at 10 uM injected subcutaneously after 24 hrs of MSU stimulation and measured after 24 hrs by caspase-1/PI staining based flow cytometry (reference value: 45.5 %); assay type: functional; details: route sc
[11] = test system: BMDM; test: Antiinflammatory activity against MSU-induced C57BL/6 mouse BMDM cells assessed as inhibition of secretion of IL-1beta protein expression in supernatant at 10 uM measured after 7 days by western blot analysis; assay type: functional, cell-based
[12] = test system: BMDM; test: Antiinflammatory activity against MSU-induced C57BL/6 mouse BMDM cells assessed as inhibition of MSU-induced ASC upregulation at 10 uM by measuring fluorescence intensity by immunofluorescence assay; assay type: functional, cell-based
[13] = test system: Mus musculus; test: Anti-inflammatory activity against air pouch inflammation ICR mouse model assessed as decrease in MSU-induced pyroptosis of air pouch macrophages by measuring late cells at 10 uM injected subcutaneously after 24 hrs of MSU stimulation and measured after 24 hrs by caspase-1/PI staining based flow cytometry (Rvb =14.7 %); assay type: functional; design: scale not given: the % may be the effect or the level left; details: route sc
[14] = test system: BMDM; test: Antiinflammatory activity against MSU-induced C57BL/6 mouse BMDM cells assessed as inhibition of MSU-induced ASC upregulation at 10 uM measured after 7 days by western blot analysis; assay type: functional, cell-based
[15] = biological target: T1, P2Y purinoceptor 14 (Homo sapiens) (UniProt Q15391); test: Antagonist activity at human P2Y14R expressed in human HEK293 cells assessed as inhibition of cAMP level at 100 nM incubated for 30 mins by cAMP-glo assay relative to control; assay type: functional, cell-based
T1 sequence (whole entry): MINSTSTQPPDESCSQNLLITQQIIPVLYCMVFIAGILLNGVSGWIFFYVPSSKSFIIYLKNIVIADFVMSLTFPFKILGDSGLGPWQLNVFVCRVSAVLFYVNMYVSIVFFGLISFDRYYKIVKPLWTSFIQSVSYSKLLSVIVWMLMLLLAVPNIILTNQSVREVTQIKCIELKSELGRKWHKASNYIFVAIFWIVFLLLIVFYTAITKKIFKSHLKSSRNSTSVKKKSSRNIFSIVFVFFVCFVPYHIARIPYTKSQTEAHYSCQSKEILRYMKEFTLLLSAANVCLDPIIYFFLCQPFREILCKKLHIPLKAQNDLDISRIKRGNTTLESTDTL

[16] = biological target: T2, P2Y purinoceptor 14 (Homo sapiens, UniProt Q15391); test: Antagonist activity at human P2Y14R expressed in human HEK293 cells assessed as inhibition of cAMP level incubated for 30 mins by cAMP-glo assay; assay type: functional, cell-based
T2 sequence (Q15391 whole entry): T1 sequence (whole entry)

Structure (SMILES) | inhibition ([15]; filed as antagonist) | pIC50 [16] | also measured
O=C(O)c1cc(-c2ccc(C3CCNCC3)cc2)c2ccc(-c3ccc(C(F)(F)F)cc3)cc2c1 [PPTN] |  |  | Activity [1]: Active; Activity [2]: Active; Activity [3]: Active; Activity [4]: 15.4%; Activity [5]: 18.8%; Activity [6]: Active; Activity [7]: Active; Activity [8]: Active; Activity [9]: Active; Activity [10]: 60%; Activity [11]: Active; Activity [12]: Active; Activity [13]: 6.81%; Activity [14]: Active
O=C(Cc1ccc2c(c1)OCO2)Nc1ccc(-c2cc3ccccc3o2)cc1 | 47% |  | 
O=C(Cc1ccc(C(F)(F)F)cc1)Nc1ccc(-c2cc3ccccc3o2)cc1 | 57% |  | 
CC(C)(C)c1ccc(CC(=O)Nc2cccc(-c3nc4ccccc4o3)c2)cc1 | 68% |  | 
Cc1ccc2oc(-c3cccc(NC(=O)Cc4cccc(Cl)c4)c3)nc2c1 | 44.1% |  | 
Cc1ccc(CC(=O)Nc2cccc(-c3nc4cc(Cl)ccc4o3)c2)cc1 | 84.6% | 8.17 | 
Cc1ccc(CC(=O)Nc2cccc(-c3nc4cc(C)ccc4o3)c2)cc1 | 72.7% | 7.73 | 
Cc1ccc2oc(-c3cccc(NC(=O)Cc4ccc(C(F)(F)F)cc4)c3)nc2c1 | 71.3% | 7.45 | 
O=C(Cc1ccccc1Br)Nc1cccc(-c2nc3cc(Cl)ccc3o2)c1 | 72.6% | 7.48 | 
COc1cccc(CC(=O)Nc2cccc(-c3nc4ccccc4o3)c2)c1 | 83% | 7.61 | 
O=C(Cc1ccccc1Cl)Nc1cccc(-c2nc3cc(Cl)ccc3o2)c1 | 68.6% |  | 
COc1ccc(CC(=O)Nc2cccc(-c3nc4ccccc4o3)c2)cc1 | 98% | 8.70 | Activity [1]: Active; Activity [2]: Active; Activity [3]: Active; Activity [4]: 8.73%; Activity [5]: 15%; Activity [6]: Active; Activity [7]: Active; Activity [8]: Active; Activity [9]: Active; Activity [10]: 68.5%; Activity [11]: Active; Activity [12]: Active; Activity [13]: 7.81%; Activity [14]: Active
CCCCOc1ccc(CC(=O)Nc2ccc(-c3cc4ccccc4o3)cc2)cc1 | 61% |  | 
CC(C)(C)c1ccc(CC(=O)Nc2ccc(-c3cc4ccccc4o3)cc2)cc1 |  |  | inhibition [15]: 33%
CC(C)(C)c1ccc(CC(=O)Nc2cccc(-c3nc4cc(Cl)ccc4o3)c2)cc1 | 57% |  | 
O=C(CC1CCOCC1)Nc1ccc(-c2cc3ccccc3o2)cc1 |  |  | inhibition [15]: 36%
COc1ccc(CC(=O)Nc2cccc(-c3nc4cc(Cl)ccc4o3)c2)cc1 | 89% | 8.04 | 

Structure (SMILES) | inhibition ([15]; filed as antagonist) | pIC50 [16] | also measured
O=C(Cc1ccc(OC(F)(F)F)cc1)Nc1cccc(-c2nc3cc(Cl)ccc3o2)c1 | 88% | 8.01 | 
O=C(Cc1ccc(C(F)(F)F)cc1)Nc1cccc(-c2nc3ccccc3o2)c1 | 83.6% | 7.94 | 
CCCCOc1ccc(CC(=O)Nc2cccc(-c3nc4cc(Cl)ccc4o3)c2)cc1 | 68% |  | 
O=C(Cc1cccc(OC(F)(F)F)c1)Nc1cccc(-c2nc3cc(Cl)ccc3o2)c1 | 84% | 7.90 | 
O=C(Cc1ccc(Br)cc1)Nc1ccc(-c2cc3ccccc3o2)cc1 | 47% |  | 
COc1ccc(CC(=O)Nc2ccc(-c3cc4ccccc4o3)cc2)cc1 | 75% |  | 
CCCCOc1ccc(CC(=O)Nc2cccc(-c3nc4ccccc4o3)c2)cc1 | 86% | 7.91 | 
O=C(Cc1ccc(Cl)cc1)Nc1ccc(-c2cc3ccccc3o2)cc1 | 51% |  | 
O=C(Cc1cccc(Br)c1)Nc1cccc(-c2nc3ccccc3o2)c1 | 70.5% | 7.60 | 
Cc1cccc(CC(=O)Nc2cc(C)cc(-c3nc4cc(Cl)ccc4o3)c2)c1 | 86.9% | 8.01 | 
Cc1ccc2oc(-c3cccc(NC(=O)Cc4cccc(C(F)(F)F)c4)c3)nc2c1 | 62.2% |  | 
Cc1ccc2oc(-c3cccc(NC(=O)Cc4ccccc4Br)c3)nc2c1 | 42.1% |  | 
O=C(Cc1ccc(OC(F)(F)F)cc1)Nc1cccc(-c2nc3ccccc3o2)c1 | 91% | 8.32 | 
Cc1cccc(CC(=O)Nc2cccc(-c3nc4ccccc4o3)c2)c1 | 78.5% | 7.66 | 
COc1ccccc1CC(=O)Nc1cccc(-c2nc3ccccc3o2)c1 | 83% | 7.91 | 
Cc1ccc2oc(-c3cccc(NC(=O)Cc4ccc5c(c4)OCO5)c3)nc2c1 | 55.1% |  | 

More lines, main results first:

inhibition ([15]; filed as antagonist) | pIC50 [16] | Structure (SMILES) | also measured
72% | 7.37 | Cc1ccc(CC(=O)Nc2ccc(-c3cc4ccccc4o3)cc2)cc1 | 
80% | 7.79 | O=C(Cc1cccc(OC(F)(F)F)c1)Nc1cccc(-c2nc3ccccc3o2)c1 | 
68.6% |  | O=C(Cc1ccccc1Br)Nc1cccc(-c2nc3ccccc3o2)c1 | 
82% | 7.62 | COc1cccc(CC(=O)Nc2cccc(-c3nc4cc(Cl)ccc4o3)c2)c1 | 
73.3% | 8.03 | Cc1ccccc1CC(=O)Nc1cccc(-c2nc3ccccc3o2)c1 | 
67.2% |  | O=C(Cc1ccccc1Cl)Nc1cccc(-c2nc3ccccc3o2)c1 | 
85.5% | 8.21 | O=C(Cc1ccc(C(F)(F)F)cc1)Nc1cccc(-c2nc3cc(Cl)ccc3o2)c1 | 
74.6% | 7.87 | O=C(Cc1cccc(Cl)c1)Nc1cccc(-c2nc3cc(Cl)ccc3o2)c1 | 
85.6% | 8.06 | Cc1ccc(CC(=O)Nc2cccc(-c3nc4ccccc4o3)c2)cc1 | 
46.7% |  | O=C(Cc1ccc2c(c1)OCO2)Nc1cccc(-c2nc3cc(Cl)ccc3o2)c1 | 
81% | 7.77 | COc1ccccc1CC(=O)Nc1cccc(-c2nc3cc(Cl)ccc3o2)c1 | 
79.7% | 7.56 | O=C(Cc1cccc(C(F)(F)F)c1)Nc1cccc(-c2nc3cc(Cl)ccc3o2)c1 | 
45% |  | O=C(Cc1cccs1)Nc1ccc(-c2cc3ccccc3o2)cc1 | 
63.3% |  | O=C(Cc1ccc2c(c1)OCO2)Nc1cccc(-c2nc3ccccc3o2)c1 | 
